The target in experiment [1] is T1, full-length beta-Catenin (Uniprot ID P35222) (Homo sapiens, UniProt P35222).
T1 construct: 10 nM full-length beta-Catenin (Uniprot ID P35222)
T1 sequence (P35222 1-781): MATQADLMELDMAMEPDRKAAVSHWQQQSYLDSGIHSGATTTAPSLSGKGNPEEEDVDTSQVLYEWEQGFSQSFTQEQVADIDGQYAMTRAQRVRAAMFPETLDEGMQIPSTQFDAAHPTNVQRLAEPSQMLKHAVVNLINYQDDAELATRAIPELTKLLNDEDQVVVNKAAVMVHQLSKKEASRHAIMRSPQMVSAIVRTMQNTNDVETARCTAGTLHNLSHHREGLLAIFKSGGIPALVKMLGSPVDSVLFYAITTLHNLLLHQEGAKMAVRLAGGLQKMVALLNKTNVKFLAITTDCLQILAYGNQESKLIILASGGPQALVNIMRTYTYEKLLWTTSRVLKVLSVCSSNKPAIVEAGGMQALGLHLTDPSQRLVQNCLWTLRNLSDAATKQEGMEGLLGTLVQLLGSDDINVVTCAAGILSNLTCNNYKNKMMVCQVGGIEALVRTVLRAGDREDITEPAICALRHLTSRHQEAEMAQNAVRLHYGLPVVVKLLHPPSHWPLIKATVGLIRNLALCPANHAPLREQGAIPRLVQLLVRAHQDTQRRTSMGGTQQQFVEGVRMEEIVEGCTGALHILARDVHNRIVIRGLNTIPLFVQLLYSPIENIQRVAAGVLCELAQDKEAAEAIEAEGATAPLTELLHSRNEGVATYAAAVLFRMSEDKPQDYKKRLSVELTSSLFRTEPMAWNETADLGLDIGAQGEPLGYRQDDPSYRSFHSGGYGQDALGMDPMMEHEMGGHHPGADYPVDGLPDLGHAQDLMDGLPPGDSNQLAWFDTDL
Description: Fluorescence polarization IC50 (beta-catenin / 5FAM-TCF4 10-53 competition). It is filed as binding. To be noted: fluorescence polarization; read-out: beta-Catenin FP IC50. On the technique in general: In fluorescence polarisation assays a small probe gives low polarisation when free and higher when bound to something large.

For experiment [2], the target named is T2, beta-catenin/TCF4 engagement (Homo sapiens, UniProt P35222).
T2 construct: expressed in transfected cells; host or cells: HEK293
T2 sequence (P35222 1-781): T1 sequence (P35222 1-781)
In words: Nano-BRET target engagement assay (B-cat-Halo & TCF4-Luc in HEK293 cells). It counts as cell-based. To be noted: absolute IC50; read-out: NanoBRET Abs IC50. On the technique in general: BRET reads energy transfer from a luciferase to a nearby fluorophore.

Each structure is given as a SMILES string.

Broadly, the IC50 is the concentration that inhibits the measured activity by half.

For the molecule `CC(=O)N1CCC[C@]12CC=CCCCC1(CCCC=CCCCOC(=O)N3CC[C@@](C(=O)N[C@@H](Cc4ccsc4)C(=O)N[C@@H](Cc4ccc(F)c(Br)c4)C(=O)N[C@@H](CCC(N)=O)C(N)=O)(C3)NC(=O)[C@H](CC(C)C)NC(=O)[C@H](Cc3ccccc3)NC(=O)[C@H](C)NC(=O)[C@H](C)NC(=O)[C@H](Cc3cccc(C(=O)O)c3)NC(=O)[C@H](CC(=O)O)NC1=O)NC(=O)[C@H](CC(C)(C)C)NC(=O)[C@H](CC(=O)O)NC2=O` (stereo partly drawn) [I-2287, Ac-PL3-Asp-Npg-B5-Asp-3COOHF-Ala-Ala-Phe-Leu-PyrS2-3Thi-3Br4FF-Gln-NH2], the IC50 in experiment [1] came out at 7 nM; in experiment [2], 7100 nM.

As for `CC(=O)N1CCC[C@]12CC=CCCCC1(CCCC=CCCCOC(=O)N3CC[C@@](C(=O)N[C@@H](Cc4ccsc4)C(=O)N[C@@H](Cc4ccc(F)c(Br)c4)C(=O)N[C@@H](C)C(N)=O)(C3)NC(=O)[C@H](C(C)C)NC(=O)[C@H](Cc3ccccc3)NC(=O)[C@H](C)NC(=O)[C@H](CCC(N)=O)NC(=O)[C@H](Cc3cccc(C(=O)O)c3)NC(=O)[C@H](CC(=O)O)NC1=O)NC(=O)[C@H](CC(C)(C)C)NC(=O)[C@H](CC(=O)O)NC2=O` (stereo partly drawn) [I-2288, Ac-PL3-Asp-Npg-B5-Asp-3COOHF-Gln-Ala-Phe-Val-PyrS2-3Thi-3Br4FF-Ala-NH2], the concentration for half-maximal inhibition (IC50) in experiment [1] was 5 nM; in experiment [2], 6700 nM.

For the molecule `CC(=O)N1CCC[C@]12CC=CCCCC1(CCCC=CCCCOC(=O)N3CC[C@@](C(=O)N[C@@H](Cc4ccccc4C(F)(F)F)C(=O)N[C@@H](Cc4ccc(F)c(Br)c4)C(=O)N[C@@H](CO)C(N)=O)(C3)NC(=O)[C@H](CC(C)C)NC(=O)[C@H](Cc3ccccc3)NC(=O)[C@H](C)NC(=O)[C@H](C)NC(=O)[C@H](Cc3cccc(C(=O)O)c3)NC(=O)[C@H](CC(=O)O)NC1=O)NC(=O)[C@H](CC(C)(C)C)NC(=O)[C@H](CC(=O)O)NC2=O` (stereo partly drawn) [I-2289, Ac-PL3-Asp-Npg-B5-Asp-3COOHF-Ala-Ala-Phe-Leu-PyrS2-2F3MeF-3Br4FF-Ser-NH2], the IC50 in experiment [1] is 8 nM; in experiment [2] it was 9000 nM.

With `CC(=O)N1CCC[C@]12CC=CCCCC1(CCCC=CCCCOC(=O)N3CC[C@@](C(=O)N[C@@H](Cc4ccccc4C(F)(F)F)C(=O)N[C@@H](Cc4ccc(F)c(Br)c4)C(=O)N[C@@H](C)C(N)=O)(C3)NC(=O)[C@H](CC(C)C)NC(=O)[C@H](Cc3ccccc3)NC(=O)[C@H](C)NC(=O)[C@H](CCC(N)=O)NC(=O)[C@H](Cc3cccc(C(=O)O)c3)NC(=O)[C@H](CC(=O)O)NC1=O)NC(=O)[C@H](CC(C)(C)C)NC(=O)[C@H](CC(=O)O)NC2=O` (stereo partly drawn) [I-2290, Ac-PL3-Asp-Npg-B5-Asp-3COOHF-Gln-Ala-Phe-Leu-PyrS2-2F3MeF-3Br4FF-Ala-NH2], the IC50 in experiment [1] is 14 nM; in experiment [2] it was 7900 nM.

`CC(=O)N1CCC[C@]12CC=CCCCC1(CCCC=CCCCOC(=O)N3CC[C@@](C(=O)N[C@@H](Cc4ccsc4)C(=O)N[C@@H](Cc4ccc(C)c(C)c4)C(=O)N[C@@H](CCC(N)=O)C(N)=O)(C3)NC(=O)[C@H](CC(C)C)NC(=O)[C@H](Cc3ccccc3)NC(=O)[C@H](C)NC(=O)[C@H](C)NC(=O)[C@H](Cc3cccc(C(=O)O)c3)NC(=O)[C@H](CC(=O)O)NC1=O)NC(=O)[C@H](CC(C)(C)C)NC(=O)[C@H](CC(=O)O)NC2=O` (stereo partly drawn) [I-2291, Ac-PL3-Asp-Npg-B5-Asp-3COOHF-Ala-Ala-Phe-Leu-PyrS2-3Thi-34MeF-Gln-NH2]: the results for the IC50 in experiment [1] and in experiment [2] were 5 nM and 4900 nM, respectively.

Take `CC(=O)N1CCC[C@]12CC=CCCCC1(CCCC=CCCCOC(=O)N3CC[C@@](C(=O)N[C@@H](Cc4ccsc4)C(=O)N[C@@H](Cc4ccc(C)c(C)c4)C(=O)N[C@@H](C)C(N)=O)(C3)NC(=O)[C@H](C(C)C)NC(=O)[C@H](Cc3ccccc3)NC(=O)[C@H](C)NC(=O)[C@H](CCC(N)=O)NC(=O)[C@H](Cc3cccc(C(=O)O)c3)NC(=O)[C@H](CC(=O)O)NC1=O)NC(=O)[C@H](CC(C)(C)C)NC(=O)[C@H](CC(=O)O)NC2=O` (stereo partly drawn) [I-2292, Ac-PL3-Asp-Npg-B5-Asp-3COOHF-Gln-Ala-Phe-Val-PyrS2-3Thi-34MeF-Ala-NH2]: the half-inhibitory concentration (IC50) in experiment [1] worked out at 9 nM; in experiment [2] it was 2700 nM.

As to `CC(=O)N1CCC[C@]12CC=CCCCC1(CCCC=CCCCOC(=O)N3CC[C@@](C(=O)N[C@@H](Cc4ccccc4C(F)(F)F)C(=O)N[C@@H](Cc4ccc(C)c(C)c4)C(=O)N[C@@H](CO)C(N)=O)(C3)NC(=O)[C@H](CC(C)C)NC(=O)[C@H](Cc3ccccc3)NC(=O)[C@H](C)NC(=O)[C@H](C)NC(=O)[C@H](Cc3cccc(C(=O)O)c3)NC(=O)[C@H](CC(=O)O)NC1=O)NC(=O)[C@H](CC(C)(C)C)NC(=O)[C@H](CC(=O)O)NC2=O` (stereo partly drawn) [I-2293, Ac-PL3-Asp-Npg-B5-Asp-3COOHF-Ala-Ala-Phe-Leu-PyrS2-2F3MeF-34MeF-Ser-NH2], the IC50 stood at 15 nM in experiment [1] and 5700 nM in experiment [2].

`CC(=O)N1CCC[C@]12CC=CCCCC1(CCCC=CCCCOC(=O)N3CC[C@@](C(=O)N[C@@H](Cc4ccccc4C(F)(F)F)C(=O)N[C@@H](Cc4ccc(C)c(C)c4)C(=O)N[C@@H](C)C(N)=O)(C3)NC(=O)[C@H](CC(C)C)NC(=O)[C@H](Cc3ccccc3)NC(=O)[C@H](C)NC(=O)[C@H](CCC(N)=O)NC(=O)[C@H](Cc3cccc(C(=O)O)c3)NC(=O)[C@H](CC(=O)O)NC1=O)NC(=O)[C@H](CC(C)(C)C)NC(=O)[C@H](CC(=O)O)NC2=O` (stereo partly drawn) [I-2294, Ac-PL3-Asp-Npg-B5-Asp-3COOHF-Gln-Ala-Phe-Leu-PyrS2-2F3MeF-34MeF-Ala-NH2]: the concentration for half-maximal inhibition (IC50) was 16 nM in experiment [1] and 4600 nM in experiment [2].

Take `CC(=O)N1CCC[C@]12CC=CCCCC1(CCCC=CCCCOC(=O)N3CC[C@@](C(=O)N[C@@H](Cc4ccsc4)C(=O)N[C@@H](Cc4ccc5c(c4)CCC5)C(=O)N[C@@H](CCC(N)=O)C(N)=O)(C3)NC(=O)[C@H](CC(C)C)NC(=O)[C@H](Cc3ccccc3)NC(=O)[C@H](C)NC(=O)[C@H](C)NC(=O)[C@H](Cc3cccc(C(=O)O)c3)NC(=O)[C@H](CC(=O)O)NC1=O)NC(=O)[C@H](CC(C)(C)C)NC(=O)[C@H](CC(=O)O)NC2=O` (stereo partly drawn) [I-2295, Ac-PL3-Asp-Npg-B5-Asp-3COOHF-Ala-Ala-Phe-Leu-PyrS2-3Thi-5IndA-Gln-NH2]: the IC50 in experiment [1] is 5 nM; in experiment [2], 3300 nM.

`CC(=O)N1CCC[C@]12CC=CCCCC1(CCCC=CCCCOC(=O)N3CC[C@@](C(=O)N[C@@H](Cc4ccsc4)C(=O)N[C@@H](Cc4ccc5c(c4)CCC5)C(=O)N[C@@H](C)C(N)=O)(C3)NC(=O)[C@H](C(C)C)NC(=O)[C@H](Cc3ccccc3)NC(=O)[C@H](C)NC(=O)[C@H](CCC(N)=O)NC(=O)[C@H](Cc3cccc(C(=O)O)c3)NC(=O)[C@H](CC(=O)O)NC1=O)NC(=O)[C@H](CC(C)(C)C)NC(=O)[C@H](CC(=O)O)NC2=O` (stereo partly drawn) [I-2296, Ac-PL3-Asp-Npg-B5-Asp-3COOHF-Gln-Ala-Phe-Val-PyrS2-3Thi-5IndA-Ala-NH2]: the values for the IC50 in experiment [1] and in experiment [2] were 6 nM and 5100 nM, respectively.

In the case of `CC(=O)N1CCC[C@]12CC=CCCCC1(CCCC=CCCCOC(=O)N3CC[C@@](C(=O)N[C@@H](Cc4ccccc4C(F)(F)F)C(=O)N[C@@H](Cc4ccc5c(c4)CCC5)C(=O)N[C@@H](CO)C(N)=O)(C3)NC(=O)[C@H](CC(C)C)NC(=O)[C@H](Cc3ccccc3)NC(=O)[C@H](C)NC(=O)[C@H](C)NC(=O)[C@H](Cc3cccc(C(=O)O)c3)NC(=O)[C@H](CC(=O)O)NC1=O)NC(=O)[C@H](CC(C)(C)C)NC(=O)[C@H](CC(=O)O)NC2=O` (stereo partly drawn) [I-2297, Ac-PL3-Asp-Npg-B5-Asp-3COOHF-Ala-Ala-Phe-Leu-PyrS2-2F3MeF-5IndA-Ser-NH2], the figures for the IC50 in experiment [1] and in experiment [2] were 68 nM and 5500 nM, respectively.

Consider `CC(=O)N1CCC[C@]12CC=CCCCC1(CCCC=CCCCOC(=O)N3CC[C@@](C(=O)N[C@@H](Cc4ccccc4C(F)(F)F)C(=O)N[C@@H](Cc4ccc5c(c4)CCC5)C(=O)N[C@@H](C)C(N)=O)(C3)NC(=O)[C@H](CC(C)C)NC(=O)[C@H](Cc3ccccc3)NC(=O)[C@H](C)NC(=O)[C@H](CCC(N)=O)NC(=O)[C@H](Cc3cccc(C(=O)O)c3)NC(=O)[C@H](CC(=O)O)NC1=O)NC(=O)[C@H](CC(C)(C)C)NC(=O)[C@H](CC(=O)O)NC2=O` (stereo partly drawn) [I-2298, Ac-PL3-Asp-Npg-B5-Asp-3COOHF-Gln-Ala-Phe-Leu-PyrS2-2F3MeF-5IndA-Ala-NH2], for which the concentration for half-maximal inhibition (IC50) stood at 8 nM in experiment [1] and 4600 nM in experiment [2].

On to `CCNC(=O)CC[C@H](NC(=O)[C@H](Cc1csc2ccccc12)NC(=O)[C@H](Cc1ccccc1C(F)(F)F)NC(=O)[C@]12CCN(C1)C(=O)OCCCC=CCCCC1(CCCC=CC[C@]3(CCCN3C(C)=O)C(=O)N[C@@H](CC(=O)O)C(=O)N[C@@H](CC(C)(C)C)C(=O)N1)C(=O)N[C@@H](CC(=O)O)C(=O)N[C@@H](Cc1cccc(C(=O)O)c1)C(=O)N[C@@H](CCC(=O)NCC)C(=O)N[C@@H](C)C(=O)N[C@@H](Cc1ccccc1)C(=O)N[C@@H](CC(C)C)C(=O)N2)C(N)=O` (stereo partly drawn) [I-2299, Ac-PL3-Asp-Npg-B5-Asp-3COOHF-[NHEt]GlnR-Ala-Phe-Leu-PyrS2-2F3MeF-BztA-NHEt]GlnR-NH2], for which the half-inhibitory concentration (IC50) in experiment [1] was 7 nM; in experiment [2] it was 5200 nM.

The values are drawn from patent US20240116985A1, “STAPLED PEPTIDES AND METHODS THEREOF” (priority 2020, published 2024).
